Data reported in patent US12655116B2, “Substituted isophthalic acid diamides” (Bayer Aktiengesellschaft, priority 2020, dated 2026).

Key:
[1] = system: ABUTH; experiment: Pre-emergence herbicidal action against ABUTH; format: in vivo, Abutilon theophrasti
Method in brief: (§1)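 Seeds sown in sandy loam, soil-covered; compound sprayed on soil surface pre-emergence. Application: WP/EC, 600–800 l/ha, 0.2% wetting agent. Readout: visual % damage at 3 weeks.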

[2] = system: ALOMY; experiment: Pre-emergence herbicidal action against ALOMY; format: in vivo, Alopecurus myosuroides; settings: Alopecurus myosuroides, 504 h, pre-emergence; for pest or weed control at 80 g/ha: scored visually after 3 weeks vs untreated controls (100% = plants have died, 0% = like control plants)
Method in brief: as §1

[3] = system: AMARE; experiment: Pre-emergence herbicidal action against AMARE; format: in vivo, Amaranthus retroflexus; settings: for pest or weed control at 20 g/ha / pest or weed control at 80 g/ha: Amaranthus retroflexus, 504 h, scored visually after 3 weeks vs untreated controls, 100% = plants have died, 0% = like control plants
Method in brief: as §1

[4] = system: AVEFA; experiment: Pre-emergence herbicidal action against AVEFA; format: in vivo, Avena fatua; settings: 80 g/ha, pre-emergence; for pest or weed control at 80 g/ha: Avena fatua, 504 h
Method in brief: as §1

[5] = system: ECHCG; experiment: Pre-emergence herbicidal action against ECHCG; format: in vivo, Echinochloa crus-galli; settings: Echinochloa crus-galli, 504 h
Method in brief: as §1

[6] = system: MATIN; experiment: Pre-emergence herbicidal action against MATIN; format: in vivo, Matricaria inodora; settings: for pest or weed control at 20 g/ha / pest or weed control at 80 g/ha: Tripleurospermum inodorum, 504 h
Method in brief: as §1

[7] = system: PHBPU; experiment: Pre-emergence herbicidal action against PHBPU; format: in vivo, Pharbitis purpurea; settings: Ipomoea purpurea, 504 h, dosage 80 g/ha
Method in brief: as §1

[8] = system: POLCO; experiment: Pre-emergence herbicidal action against POLCO; format: in vivo, Polygonum convolvulus; settings: Fallopia convolvulus, 504 h, dosage 80 g/ha
Method in brief: as §1

[9] = system: SETVI; experiment: Pre-emergence herbicidal action against SETVI; format: in vivo, Setaria viridis; settings: Setaria viridis, 504 h, dosage 80 g/ha
Method in brief: as §1

[10] = system: STEME; experiment: Pre-emergence herbicidal action against STEME; format: in vivo, Stellaria media
Method in brief: as §1

[11] = system: VERPE; experiment: Pre-emergence herbicidal action against VERPE; format: in vivo, Veronica persica; settings: dosage 80 g/ha; for pest or weed control at 80 g/ha: Veronica persica, 504 h
Method in brief: as §1

[12] = system: VIOTR; experiment: Pre-emergence herbicidal action against VIOTR; format: in vivo, Viola tricolor; settings: for pest or weed control at 20 g/ha / pest or weed control at 80 g/ha: Viola tricolor, 504 h; for pest or weed control at 20 g/ha: dosage 20 g/ha
Method in brief: as §1

[13] = system: DIGSA; experiment: Pre-emergence herbicidal action against DIGSA; format: in vivo, Digitaria sanguinalis; settings: for pest or weed control at 20 g/ha / pest or weed control at 80 g/ha: Digitaria sanguinalis, 504 h; for pest or weed control at 20 g/ha: dosage 20 g/ha
Method in brief: as §1

[14] = system: ABUTH; experiment: Post-emergence herbicidal action against ABUTH; format: in vivo, Abutilon theophrasti; settings: visual assessment about 3 weeks after treatment vs untreated controls
Method in brief: (§2)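 Percent herbicidal action is rated by eye about 3 weeks after treatment against untreated controls, where 100% means dead plants and 0% means like controls. Plants in sandy loam are sprayed on green parts at the one-leaf stage with aqueous WP or EC preparations at 600 to 800 l/ha plus 0.2% wetting agent.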

[15] = system: ALOMY; experiment: Post-emergence herbicidal action against ALOMY; format: in vivo, Alopecurus myosuroides; settings: Alopecurus myosuroides, 504 h, dosage 20 g/ha, visual assessment about 3 weeks after treatment vs untreated controls
Method in brief: as §2

[16] = system: AMARE; experiment: Post-emergence herbicidal action against AMARE; format: in vivo, Amaranthus retroflexus; settings: 20 g/ha, visual assessment about 3 weeks after treatment, 100% = plants have died, 0% = like control plants; for pest or weed control at 20 g/ha: Amaranthus retroflexus, 504 h
Method in brief: as §2

[17] = system: AVEFA; experiment: Post-emergence herbicidal action against AVEFA; format: in vivo, Avena fatua; settings: Avena fatua, 504 h, 20 g/ha, visual assessment about 3 weeks after treatment, 100% = plants have died, 0% = like control plants
Method in brief: as §2

[18] = system: ECHCG; experiment: Post-emergence herbicidal action against ECHCG; format: in vivo, Echinochloa crus-galli; settings: Echinochloa crus-galli, 504 h; for pest or weed control at 20 g/ha: dosage 20 g/ha
Method in brief: as §2

[19] = system: MATIN; experiment: Post-emergence herbicidal action against MATIN; format: in vivo, Matricaria inodora; settings: Tripleurospermum inodorum, 504 h; for pest or weed control at 5 g/ha: dosage 5 g/ha; for pest or weed control at 20 g/ha: dosage 20 g/ha
Method in brief: as §2

[20] = system: PHBPU; experiment: Post-emergence herbicidal action against PHBPU; format: in vivo, Pharbitis purpurea; settings: Ipomoea purpurea, 504 h; for pest or weed control at 20 g/ha: dosage 20 g/ha
Method in brief: as §2

[21] = system: POLCO; experiment: Post-emergence herbicidal action against POLCO; format: in vivo, Polygonum convolvulus; settings: dosage 20 g/ha; for pest or weed control at 20 g/ha: Fallopia convolvulus, 504 h
Method in brief: as §2

[22] = system: SETVI; experiment: Post-emergence herbicidal action against SETVI; format: in vivo, Setaria viridis; settings: Setaria viridis, 504 h; for pest or weed control at 5 g/ha: dosage 5 g/ha; for pest or weed control at 20 g/ha: dosage 20 g/ha
Method in brief: as §2

[23] = system: STEME; experiment: Post-emergence herbicidal action against STEME; format: in vivo, Stellaria media
Method in brief: as §2

[24] = system: VERPE; experiment: Post-emergence herbicidal action against VERPE; format: in vivo, Veronica persica; settings: Veronica persica, 504 h
Method in brief: as §2

[25] = system: VIOTR; experiment: Post-emergence herbicidal action against VIOTR; format: in vivo, Viola tricolor
Method in brief: as §2

[26] = system: DIGSA; experiment: Post-emergence herbicidal action against DIGSA; format: in vivo, Digitaria sanguinalis; settings: Digitaria sanguinalis, 504 h
Method in brief: as §2

[27] = system: LOLRI; experiment: Pre-emergence herbicidal action against LOLRI; format: in vivo, Lolium rigidum; settings: Lolium rigidum, 504 h, 80 g/ha
Method in brief: as §1

[28] = Abutilon theophrasti, 504 h, 80 g/ha, scored visually after 3 weeks vs untreated controls (100% = plants have died, 0% = like control plants)
[29] = Abutilon theophrasti, 504 h, dosage 20 g/ha
[30] = 80 g/ha, scored visually after 3 weeks vs untreated controls (100% = plants have died, 0% = like control plants)

CCNC(=O)c1c(C(F)F)ccc(C(=O)Nc2nnnn2C)c1SC [Example 1-88]
80%: pest or weed control at 80 g/ha [8] | pest or weed control at 20 g/ha [15] | pest or weed control at 20 g/ha [17] | pest or weed control at 5 g/ha ([18]; dosage 5 g/ha) | pest or weed control at 5 g/ha [19] | pest or weed control at 20 g/ha [19] | pest or weed control at 5 g/ha ([20]; dosage 5 g/ha) | pest or weed control at 20 g/ha [21] | pest or weed control at 5 g/ha [22] | pest or weed control at 5 g/ha ([24]; 5 g/ha) | pest or weed control at 20 g/ha ([25]; Viola tricolor, 504 h, 20 g/ha)
100%: pest or weed control at 80 g/ha [1, 28] | pest or weed control at 20 g/ha ([1]; Abutilon theophrasti, 504 h, dosage 20 g/ha, scored visually after 3 weeks vs untreated controls, 100% = plants have died, 0% = like control plants, read-out: Pre-emergence action against ABUTH (herbicidal activity in percent)) | pest or weed control at 20 g/ha [3] | pest or weed control at 80 g/ha ([3]; 80 g/ha) | pest or weed control at 80 g/ha [5] | pest or weed control at 20 g/ha ([6]; dosage 20 g/ha) | pest or weed control at 80 g/ha ([6]; dosage 80 g/ha) | pest or weed control at 80 g/ha [9] | pest or weed control at 20 g/ha ([10]; Stellaria media, 504 h, dosage 20 g/ha) | pest or weed control at 80 g/ha ([10]; Stellaria media, 504 h, dosage 80 g/ha) | pest or weed control at 80 g/ha [11] | pest or weed control at 20 g/ha [12] | pest or weed control at 80 g/ha ([12]; dosage 80 g/ha) | pest or weed control at 20 g/ha [13] | pest or weed control at 80 g/ha ([13]; dosage 80 g/ha)
90%: pest or weed control at 80 g/ha [2] | pest or weed control at 80 g/ha [4] | pest or weed control at 20 g/ha ([5]; 20 g/ha) | pest or weed control at 80 g/ha [7] | pest or weed control at 5 g/ha ([14]; Abutilon theophrasti, 504 h, dosage 5 g/ha) | pest or weed control at 20 g/ha [14, 29] | pest or weed control at 20 g/ha [16] | pest or weed control at 20 g/ha [18] | pest or weed control at 20 g/ha [20] | pest or weed control at 20 g/ha [22] | pest or weed control at 20 g/ha ([23]; Stellaria media, 504 h, 20 g/ha) | pest or weed control at 5 g/ha ([23]; Stellaria media, 504 h, dosage 5 g/ha) | pest or weed control at 20 g/ha ([24]; 20 g/ha) | pest or weed control at 5 g/ha ([26]; 5 g/ha) | pest or weed control at 20 g/ha ([26]; 20 g/ha)

CCCn1nnnc1NC(=O)c1ccc(S(C)(=O)=O)c(C(=O)NC2CC2)c1Cl [Example 3-125]
90%: Pre-emergence action against STEME in % ([10]; dosage 20 g/ha) | Post-emergence action at 20 g/ha against AMARE in % [16]
80%: Pre-emergence action against AVEFA in % [4] | Pre-emergence action against VERPE in % [11] | Pre-emergence action against DIGSA in % ([13]; dosage 80 g/ha) | Post-emergence action against ABUTH in % ([14]; dosage 20 g/ha) | Post-emergence action against POLCO in % [21] | Post-emergence action against STEME in % ([23]; 20 g/ha) | Post-emergence action against VIOTR in % ([25]; 20 g/ha)
100%: Pre-emergence action against ABUTH (herbicidal activity) [1, 30] | Pre-emergence action against AMARE in % [3, 30] | Pre-emergence action against MATIN in % ([6]; dosage 20 g/ha) | Pre-emergence action against MATIN in % ([6]; dosage 80 g/ha) | Pre-emergence action against STEME in % ([10]; dosage 80 g/ha) | Pre-emergence action against VIOTR in % ([12]; dosage 80 g/ha)

CCn1nnnc1NC(=O)c1ccc(Br)c(C(=O)NC2CC2)c1Cl [Example 2-179]
90%: pest or weed control at 80 g/ha [11] | pest or weed control at 20 g/ha [14, 29] | pest or weed control at 20 g/ha [15] | pest or weed control at 20 g/ha [19] | pest or weed control at 20 g/ha [21] | pest or weed control at 5 g/ha [22] | pest or weed control at 20 g/ha [22] | pest or weed control at 5 g/ha ([25]; Viola tricolor, 504 h, 5 g/ha)
80%: pest or weed control at 20 g/ha ([2]; 20 g/ha, scored visually after 3 weeks, 100% = plants have died, 0% = like control plants) | pest or weed control at 80 g/ha [27] | pest or weed control at 80 g/ha [7] | pest or weed control at 20 g/ha [18] | pest or weed control at 5 g/ha [19] | pest or weed control at 20 g/ha [20]
100%: pest or weed control at 80 g/ha [1, 28] | pest or weed control at 80 g/ha [2] | pest or weed control at 20 g/ha [3] | pest or weed control at 80 g/ha ([3]; 80 g/ha) | pest or weed control at 80 g/ha [4] | pest or weed control at 80 g/ha [5] | pest or weed control at 20 g/ha ([6]; dosage 20 g/ha) | pest or weed control at 80 g/ha ([6]; dosage 80 g/ha) | pest or weed control at 80 g/ha [9] | pest or weed control at 20 g/ha [12] | pest or weed control at 80 g/ha ([12]; dosage 80 g/ha) | pest or weed control at 20 g/ha [13] | pest or weed control at 80 g/ha ([13]; dosage 80 g/ha) | pest or weed control at 20 g/ha [16] | pest or weed control at 20 g/ha ([25]; Viola tricolor, 504 h, 20 g/ha)
